{"source": "patent US9956187B2", "about": "(priority 2014, dated 2018)", "key": {"human cloned SERT": {"target": "T1, human cloned SERT (Homo sapiens, UniProt P31645)", "T1 construct": "expressed in transfected cells", "experiment": "Serotonin reuptake assay in HEK 293 cells", "assay_type": "cell-based", "details": "mean±SE", "experimental": "In brief, Human Embryonic Kidney 293 cells were plated in Poly-L-Lys (PLL) coated 384-well black clear bottom cell culture plates in DMEM+1% dFBS, at a density of 15,000 cells per well in a total volume of 40 μl. The cells were incubated for a minimum of 6 hours before use in the assays. The medium was removed and 20 μL of assay buffer (20 mM HEPES, 1×HBSS, pH 7.40) was added, followed by 5 μL of 5× drug solutions. The plate was incubated at 37° C. for 30 min. After the incubation, 25 μL of dye solution was added and fluorescence intensity was measured after […] at 37° C., using FlexStation II (bottom read mode, Excitation at 440 nm, Emission at 520 nm with 510 nm cut-off) from the Molecular Devices. […] The half maximal inhibitory concentration were determined and expressed as pIC50 (pIC50=−log (IC50))."}, "kappa opioid receptor": {"target": "kappa opioid receptor (Homo sapiens, UniProt P41145)", "sequence (P41145 whole entry)": "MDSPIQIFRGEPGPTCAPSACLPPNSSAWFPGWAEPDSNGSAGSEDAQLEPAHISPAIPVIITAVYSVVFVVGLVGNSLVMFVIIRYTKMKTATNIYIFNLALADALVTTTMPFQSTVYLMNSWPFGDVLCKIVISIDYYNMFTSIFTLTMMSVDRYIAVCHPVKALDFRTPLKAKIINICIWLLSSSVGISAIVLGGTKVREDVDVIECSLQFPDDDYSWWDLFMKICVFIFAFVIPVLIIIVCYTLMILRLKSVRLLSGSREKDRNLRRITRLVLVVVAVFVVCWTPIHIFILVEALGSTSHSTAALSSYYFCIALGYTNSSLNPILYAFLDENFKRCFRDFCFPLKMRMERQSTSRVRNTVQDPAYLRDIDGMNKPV", "assay_type": "biochemical", "design": "purchased Millipore (Billerica, Mass.); host or cells: Chem-5 mammalian cell line", "text": "Membrane preparations of recombinant human kappa opioid receptor expressed in the mammalian cell line Chem-5 were obtained from Millipore (Billerica, Mass.). The effects of specific kappa opioid receptor ligands on the activation of the recombinant receptor were investigated by measuring G protein activation in vitro.\nThe assay reports the initial rates of activation of heterotrimeric G proteins (Gαii1β1γ2) on an agonist-bound receptor by measuring the accumulation of [^35S]-GTPγS (non-hydrolyzable analog of GTP) bound to the activated Gαi1 subunit. […] The G protein activation assay was conducted as follows (final concentrations in 50 μL reaction mixture are given in parentheses): the membrane sample was diluted into ice-cold 10 mM 3-(N-morpholino)propanesulfonic acid (MOPS) buffer to reach a protein concentration of 40 ng/μL. 10 μL of the diluted dispersion were dispensed into pre-siliconized glass tubes and mixed with the ligand in MOPS buffer containing 0.1% (w/v) BSA. Upon addition of a mixture of Gαi1 (100 nM) and Gβ1γ2 (500 nM), the tubes were incubated on ice for 30 minutes. The reaction was started by addition of MOPS buffer pH=7.5 (50 mM), EDTA (1 mM), MgCl2 (3 mM), GDP (4 μM), BSA (0.3% w/v), NaCl (100 mM), DTT (1 mM), and [^35S]-GTPγS (5 nM, 1250 Ci/mmol) followed by rapid transfer of the tubes to a water bath at 30° C. The incubation continued for 45 minutes. The reaction was terminated by addition of 2 mL of ice-cold stop solution, TNMg (20 mM Tris-HCl pH=8.0, 100 mM NaCl, and 25 mM MgCl2). The reaction mixture was rapidly filtered through nitrocellulose filters (Millipore). Filters were washed four times with 2 mL each of cold TNMg buffer, dried, placed in scintillation vials filled with ScintiSafe Econo F scintillation liquid (Fisher, Waltham, Mass.), and the radioactivity counted. Duplicate samples corresponding to every ligand concentration point were counted."}, "[1]": {"target": "T2, norepinephrine transporter (NET) (Homo sapiens, UniProt P23975)", "T2 construct": "expressed in transfected cells", "T2 sequence (P23975 whole entry)": "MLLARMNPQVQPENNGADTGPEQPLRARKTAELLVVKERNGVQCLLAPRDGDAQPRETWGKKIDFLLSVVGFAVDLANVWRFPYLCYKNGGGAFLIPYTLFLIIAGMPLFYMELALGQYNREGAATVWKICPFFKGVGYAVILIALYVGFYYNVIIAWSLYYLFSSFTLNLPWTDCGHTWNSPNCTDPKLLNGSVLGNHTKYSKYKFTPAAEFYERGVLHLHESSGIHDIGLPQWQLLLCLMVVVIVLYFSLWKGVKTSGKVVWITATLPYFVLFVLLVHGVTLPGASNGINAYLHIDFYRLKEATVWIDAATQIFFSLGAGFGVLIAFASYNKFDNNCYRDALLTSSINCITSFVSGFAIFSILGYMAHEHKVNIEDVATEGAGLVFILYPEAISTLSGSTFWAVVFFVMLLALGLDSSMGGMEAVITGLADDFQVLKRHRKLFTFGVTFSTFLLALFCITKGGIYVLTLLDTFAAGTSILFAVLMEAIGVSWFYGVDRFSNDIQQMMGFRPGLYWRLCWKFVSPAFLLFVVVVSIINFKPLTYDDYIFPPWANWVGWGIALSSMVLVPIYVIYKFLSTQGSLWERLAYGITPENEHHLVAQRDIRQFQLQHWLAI", "experiment": "Secondary radioligand binding assay (affinity)", "details": "FIG. 10A", "experimental": "The secondary binding assay was performed only when the inhibition in the primary screen was over 50%. A secondary binding assay was utilized to determine the binding affinity for the identified receptor.\n50 μL of a crude membrane fraction of cells expressing the respective receptors were applied to each well. Reaction incubation, harvesting and radioactivity measurement from the primary assay were repeated. Affinity is expressed as pKi (−log Ki)."}, "D3": {"target": "T3, D3 (Homo sapiens, UniProt P35462)", "T3 construct": "expressed in transfected cells", "experiment": "Primary radioligand binding screen", "details": "primary binding, D3; dezocine 10 μM", "experimental": "(§1) Evidence for interaction was based on the inhibition of the reference ligand-binding signal. […] Briefly, 50 μL aliquots of radioactive ligand (5 nM) were added to wells of a 96-well plate, which contained 25 μL of the reference or test ligands. We employed transfected cell lines expressing mainly human (unless otherwise specified) recombinant receptors, monoamine transporters, or ion channels for crude membrane preparation. Detailed information about our membrane preparation is well known in the art and can be obtained from publicly available protocol online. Crude membrane fractions containing the receptors were resuspended in standard binding buffer and 50 μL aliquots added to each well. The reactions were incubated at room temperature for 1.5 hours to allow for radioligand binding equilibration. Bound radioactivity was harvested by rapid filtration through a 0.3% polyethyleneimine-treated, 96-well filter mats using a 96-well Filtermate harvester. The dried filters were treated with melted scintillant and a Microbeta scintillation counter was utilized to measure the radioactivity retained on the filter."}, "5-HT1B": {"target": "T4, 5-HT1B (Homo sapiens, UniProt P28222)", "T4 construct": "expressed in transfected cells", "experiment": "Primary radioligand binding screen", "details": "primary binding, 5-HT1B; dezocine 10 μM", "experimental": "as §1"}, "5-HT1A": {"target": "T5, 5-HT1A (Homo sapiens, UniProt P08908)", "T5 construct": "expressed in transfected cells", "experiment": "Primary radioligand binding screen", "details": "primary binding, 5-HT1A; dezocine 10 μM", "experimental": "as §1"}, "5-hT5A": {"target": "T6, 5-hT5A (Homo sapiens, UniProt P47898)", "T6 construct": "expressed in transfected cells", "experiment": "Primary radioligand binding screen", "details": "primary binding, 5-hT5A; dezocine 10 μM", "experimental": "as §1"}, "5-HT3": {"target": "T7, 5-HT3 (Homo sapiens, UniProt P46098)", "T7 construct": "expressed in transfected cells", "experiment": "Primary radioligand binding screen", "details": "primary binding, 5-HT3; dezocine 10 μM", "experimental": "as §1"}, "5-HT2B": {"target": "T8, 5-HT2B (Homo sapiens, UniProt P41595)", "T8 construct": "expressed in transfected cells", "experiment": "Primary radioligand binding screen", "details": "primary binding, 5-HT2B; dezocine 10 μM", "experimental": "as §1"}, "D1": {"target": "T9, D1 (Homo sapiens, UniProt P21728)", "T9 construct": "expressed in transfected cells", "T9 sequence (P21728 whole entry)": "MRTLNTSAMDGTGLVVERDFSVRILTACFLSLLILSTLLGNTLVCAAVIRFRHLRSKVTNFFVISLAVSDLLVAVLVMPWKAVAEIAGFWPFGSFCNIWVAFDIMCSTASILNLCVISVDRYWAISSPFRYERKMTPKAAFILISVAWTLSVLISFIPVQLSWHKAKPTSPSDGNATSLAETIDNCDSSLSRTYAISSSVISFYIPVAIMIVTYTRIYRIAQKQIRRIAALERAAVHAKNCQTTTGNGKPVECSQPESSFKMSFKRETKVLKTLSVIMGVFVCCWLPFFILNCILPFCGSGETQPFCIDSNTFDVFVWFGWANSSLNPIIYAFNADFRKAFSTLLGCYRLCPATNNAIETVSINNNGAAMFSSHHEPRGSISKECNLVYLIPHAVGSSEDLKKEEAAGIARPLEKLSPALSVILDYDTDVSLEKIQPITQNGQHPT", "experiment": "Primary radioligand binding screen", "details": "primary binding, D1; dezocine 10 μM", "experimental": "as §1"}, "Alpha1B": {"target": "T10, Alpha1B (Homo sapiens, UniProt P35368)", "T10 construct": "expressed in transfected cells", "experiment": "Primary radioligand binding screen", "details": "primary binding, Alpha1B; dezocine 10 μM", "experimental": "as §1"}, "NET": {"target": "T11, NET (Homo sapiens, UniProt P23975)", "T11 construct": "expressed in transfected cells", "T11 sequence (P23975 whole entry)": "as the sequence (P23975 whole entry) above", "experiment": "Primary radioligand binding screen", "details": "primary binding, NET; dezocine 10 μM", "experimental": "as §1"}, "D2": {"target": "T12, D2 (Homo sapiens, UniProt P14416)", "T12 construct": "expressed in transfected cells", "experiment": "Primary radioligand binding screen", "details": "primary binding, D2; dezocine 10 μM", "experimental": "as §1"}, "D4": {"target": "T13, D4 (Homo sapiens, UniProt P21917)", "T13 construct": "expressed in transfected cells", "experiment": "Primary radioligand binding screen", "details": "primary binding, D4; dezocine 10 μM", "experimental": "as §1"}, "5-HT7": {"target": "T14, 5-HT7 (Homo sapiens, UniProt P34969)", "T14 construct": "expressed in transfected cells", "experiment": "Primary radioligand binding screen", "details": "primary binding, 5-HT7; dezocine 10 μM", "experimental": "as §1"}, "H3": {"target": "T15, H3 (Homo sapiens, UniProt Q9Y5N1)", "T15 construct": "expressed in transfected cells", "T15 sequence (Q9Y5N1 whole entry)": "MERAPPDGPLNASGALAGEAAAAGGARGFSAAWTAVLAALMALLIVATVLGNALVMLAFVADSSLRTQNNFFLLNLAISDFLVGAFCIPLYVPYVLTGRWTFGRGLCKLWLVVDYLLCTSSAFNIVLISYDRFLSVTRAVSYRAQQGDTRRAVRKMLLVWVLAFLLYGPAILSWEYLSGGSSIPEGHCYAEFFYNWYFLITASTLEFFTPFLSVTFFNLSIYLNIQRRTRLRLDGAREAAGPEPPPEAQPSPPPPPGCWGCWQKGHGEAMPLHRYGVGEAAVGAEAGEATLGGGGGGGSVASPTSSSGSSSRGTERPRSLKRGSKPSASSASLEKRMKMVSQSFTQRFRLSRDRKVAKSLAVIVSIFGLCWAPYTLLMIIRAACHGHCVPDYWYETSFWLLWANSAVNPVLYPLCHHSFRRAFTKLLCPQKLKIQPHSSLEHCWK", "experiment": "Primary radioligand binding screen", "details": "primary binding, H3; dezocine 10 μM", "experimental": "as §1"}, "Beta3": {"target": "T16, Beta3 (Homo sapiens, UniProt P13945)", "T16 construct": "expressed in transfected cells", "experiment": "Primary radioligand binding screen", "details": "primary binding, Beta3; dezocine 10 μM", "experimental": "as §1"}, "5-HT1D": {"target": "T17, 5-HT1D (Homo sapiens, UniProt P28221)", "T17 construct": "expressed in transfected cells", "experiment": "Primary radioligand binding screen", "details": "primary binding, 5-HT1D; dezocine 10 μM", "experimental": "as §1"}, "Alpha1A": {"target": "T18, Alpha1A (Homo sapiens, UniProt P35348)", "T18 construct": "expressed in transfected cells", "experiment": "Primary radioligand binding screen", "details": "primary binding, Alpha1A; dezocine 10 μM", "experimental": "as §1"}, "M5": {"target": "T19, M5 (Homo sapiens, UniProt P08912)", "T19 construct": "expressed in transfected cells", "experiment": "Primary radioligand binding screen", "details": "primary binding, M5; dezocine 10 μM", "experimental": "as §1"}, "Alpha2A": {"target": "T20, Alpha2A (Homo sapiens, UniProt P08913)", "T20 construct": "expressed in transfected cells", "T20 sequence (P08913 whole entry)": "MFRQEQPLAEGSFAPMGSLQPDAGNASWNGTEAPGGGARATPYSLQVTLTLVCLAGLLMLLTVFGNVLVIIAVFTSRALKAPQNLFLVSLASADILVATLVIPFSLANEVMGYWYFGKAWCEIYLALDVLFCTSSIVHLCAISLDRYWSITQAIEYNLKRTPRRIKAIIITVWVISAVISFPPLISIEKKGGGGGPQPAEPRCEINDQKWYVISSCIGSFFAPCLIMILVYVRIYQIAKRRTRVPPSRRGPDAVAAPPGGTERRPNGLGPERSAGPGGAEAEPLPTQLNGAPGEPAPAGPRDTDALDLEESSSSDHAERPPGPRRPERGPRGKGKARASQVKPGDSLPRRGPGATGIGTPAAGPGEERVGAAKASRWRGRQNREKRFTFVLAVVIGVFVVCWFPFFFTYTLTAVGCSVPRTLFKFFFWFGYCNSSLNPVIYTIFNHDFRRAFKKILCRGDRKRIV", "experiment": "Primary radioligand binding screen", "details": "primary binding, Alpha2A; dezocine 10 μM", "experimental": "as §1"}, "5-HT2C": {"target": "T21, 5-HT2C (Homo sapiens, UniProt P28335)", "T21 construct": "expressed in transfected cells", "T21 sequence (P28335 33-458)": "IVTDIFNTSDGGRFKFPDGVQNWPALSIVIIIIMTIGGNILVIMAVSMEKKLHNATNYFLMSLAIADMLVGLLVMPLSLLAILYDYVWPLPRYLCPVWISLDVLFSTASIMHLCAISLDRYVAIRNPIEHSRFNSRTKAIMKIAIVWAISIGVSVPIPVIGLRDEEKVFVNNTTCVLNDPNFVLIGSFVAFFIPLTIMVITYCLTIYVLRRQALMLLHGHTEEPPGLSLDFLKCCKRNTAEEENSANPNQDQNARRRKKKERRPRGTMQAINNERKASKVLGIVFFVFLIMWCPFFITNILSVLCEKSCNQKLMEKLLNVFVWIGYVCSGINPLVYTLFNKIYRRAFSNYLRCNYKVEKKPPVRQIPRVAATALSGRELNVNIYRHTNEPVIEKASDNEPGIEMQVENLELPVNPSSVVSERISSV", "experiment": "Primary radioligand binding screen", "details": "primary binding, 5-HT2C; dezocine 10 μM", "experimental": "as §1"}, "D5": {"target": "T22, D5 (Homo sapiens, UniProt P21918)", "T22 construct": "expressed in transfected cells", "T22 sequence (P21918 whole entry)": "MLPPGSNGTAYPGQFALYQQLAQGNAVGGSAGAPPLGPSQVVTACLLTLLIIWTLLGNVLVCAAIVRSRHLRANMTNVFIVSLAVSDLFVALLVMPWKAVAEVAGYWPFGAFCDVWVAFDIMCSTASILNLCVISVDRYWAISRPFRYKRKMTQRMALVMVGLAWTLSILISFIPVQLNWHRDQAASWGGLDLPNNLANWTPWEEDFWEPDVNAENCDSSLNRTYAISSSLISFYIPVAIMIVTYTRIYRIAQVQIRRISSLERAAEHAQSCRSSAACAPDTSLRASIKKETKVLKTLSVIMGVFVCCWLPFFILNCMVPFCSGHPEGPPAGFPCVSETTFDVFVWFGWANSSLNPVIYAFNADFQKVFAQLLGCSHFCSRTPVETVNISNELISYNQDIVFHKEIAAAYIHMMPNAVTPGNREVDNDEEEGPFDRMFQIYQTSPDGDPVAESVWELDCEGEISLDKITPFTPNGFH", "experiment": "Primary radioligand binding screen", "details": "primary binding, D5; dezocine 10 μM", "experimental": "as §1"}, "H2": {"target": "T23, H2 (Homo sapiens, UniProt P25021)", "T23 construct": "expressed in transfected cells", "experiment": "Primary radioligand binding screen", "details": "primary binding, H2; dezocine 10 μM", "experimental": "as §1"}, "Alpha2C": {"target": "T24, Alpha2C (Homo sapiens, UniProt P18825)", "T24 construct": "expressed in transfected cells", "T24 sequence (P18825 whole entry)": "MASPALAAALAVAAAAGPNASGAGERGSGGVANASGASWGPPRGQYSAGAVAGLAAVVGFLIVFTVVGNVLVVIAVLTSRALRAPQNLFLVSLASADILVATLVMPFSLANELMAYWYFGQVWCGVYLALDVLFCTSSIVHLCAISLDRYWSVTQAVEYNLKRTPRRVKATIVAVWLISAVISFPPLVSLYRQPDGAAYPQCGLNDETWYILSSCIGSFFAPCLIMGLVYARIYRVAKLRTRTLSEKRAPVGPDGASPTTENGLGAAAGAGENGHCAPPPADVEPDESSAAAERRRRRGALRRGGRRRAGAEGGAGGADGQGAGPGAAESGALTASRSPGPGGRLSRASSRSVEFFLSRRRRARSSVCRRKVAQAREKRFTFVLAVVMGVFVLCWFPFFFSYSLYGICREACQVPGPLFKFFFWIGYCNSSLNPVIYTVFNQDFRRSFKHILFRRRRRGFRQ", "experiment": "Primary radioligand binding screen", "details": "primary binding, Alpha2C; dezocine 10 μM", "experimental": "as §1"}, "5-HT6": {"target": "T25, 5-HT6 (Homo sapiens, UniProt P50406)", "T25 construct": "expressed in transfected cells", "T25 sequence (P50406 whole entry)": "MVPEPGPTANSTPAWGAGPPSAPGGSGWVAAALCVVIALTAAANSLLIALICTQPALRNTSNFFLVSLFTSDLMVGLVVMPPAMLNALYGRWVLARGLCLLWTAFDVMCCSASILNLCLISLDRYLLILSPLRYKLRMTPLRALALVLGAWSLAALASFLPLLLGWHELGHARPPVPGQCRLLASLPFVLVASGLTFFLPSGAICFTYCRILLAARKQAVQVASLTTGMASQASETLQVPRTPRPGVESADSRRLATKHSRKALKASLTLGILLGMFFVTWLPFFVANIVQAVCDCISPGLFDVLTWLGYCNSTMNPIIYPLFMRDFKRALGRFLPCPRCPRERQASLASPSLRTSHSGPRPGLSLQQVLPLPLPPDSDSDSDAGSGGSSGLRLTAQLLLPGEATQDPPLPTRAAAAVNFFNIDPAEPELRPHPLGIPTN", "experiment": "Primary radioligand binding screen", "details": "primary binding, 5-HT6; dezocine 10 μM", "experimental": "as §1"}, "Beta2": {"target": "T26, Beta2 (Homo sapiens, UniProt P07550)", "T26 construct": "expressed in transfected cells", "experiment": "Primary radioligand binding screen", "details": "primary binding, Beta2; dezocine 10 μM", "experimental": "as §1"}, "5-HT1E": {"target": "T27, 5-HT1E (Homo sapiens, UniProt P28566)", "T27 construct": "expressed in transfected cells", "T27 sequence (P28566 whole entry)": "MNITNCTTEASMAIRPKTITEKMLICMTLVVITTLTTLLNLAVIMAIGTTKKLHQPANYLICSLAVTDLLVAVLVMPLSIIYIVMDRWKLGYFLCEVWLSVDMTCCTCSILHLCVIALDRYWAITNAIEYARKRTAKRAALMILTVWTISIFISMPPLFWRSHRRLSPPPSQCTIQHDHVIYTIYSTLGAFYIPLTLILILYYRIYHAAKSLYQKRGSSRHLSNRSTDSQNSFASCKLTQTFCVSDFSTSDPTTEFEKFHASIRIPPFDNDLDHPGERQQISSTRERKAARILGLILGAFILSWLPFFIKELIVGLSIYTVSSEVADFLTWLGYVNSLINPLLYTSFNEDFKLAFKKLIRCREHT", "experiment": "Primary radioligand binding screen", "details": "primary binding, 5-HT1E; dezocine 10 μM", "experimental": "as §1"}, "Sigma 1": {"target": "Sigma 1 (Homo sapiens, UniProt Q99720)", "sequence (Q99720 whole entry)": "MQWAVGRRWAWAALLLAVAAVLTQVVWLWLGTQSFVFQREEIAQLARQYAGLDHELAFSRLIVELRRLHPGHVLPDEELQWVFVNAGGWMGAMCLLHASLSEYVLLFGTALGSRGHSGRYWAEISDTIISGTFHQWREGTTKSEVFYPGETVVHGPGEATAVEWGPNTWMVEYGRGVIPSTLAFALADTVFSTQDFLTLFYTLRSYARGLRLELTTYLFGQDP", "experiment": "Primary radioligand binding screen", "design": "expressed in transfected cells", "details": "primary binding, Sigma 1; dezocine 10 μM", "experimental": "as §1"}}, "note": "“Also recorded” adds a separate entry of the source."}
{"molecule": "CNCCC(Oc1ccccc1OC)c1ccccc1", "note": "(stereo not drawn) [nisoxetine]", "values": [{"measurement": "pIC50 of SERT (serotonin reuptake)", "setting": "human cloned SERT", "value": "5.99±0.07"}]}
{"molecule": "Oc1ccc2c3c1O[C@H]1c4[nH]c5c(c4C[C@@]4(O)[C@@H](C2)N(CC2CC2)CC[C@]314)C[C@@]1(O)[C@H]2Cc3ccc(O)c4c3[C@@]1(CCN2CC1CC1)[C@H]5O4", "note": "[nor-binaltorphimine]", "values": [{"measurement": "G protein activation in the presence of kappa receptor", "setting": "kappa opioid receptor", "value": "inverse kappa agonist; also recorded: did not induce G protein activation"}]}
{"molecule": "CN1CC[C@]23c4c5ccc(O)c4O[C@H]2[C@@H](O)C=C[C@H]3[C@H]1C5", "note": "[Morphine]", "values": [{"measurement": "interaction (binding activity) with NET", "setting": "[1]", "value": "No significant binding activity"}]}
{"molecule": "C=CCN1CC[C@]23c4c5ccc(O)c4O[C@H]2C(=O)CC[C@@]3(O)[C@H]1C5", "note": "[Naloxone]", "values": [{"measurement": "interaction (binding activity) with NET", "setting": "[1]", "value": "No significant binding activity"}, {"measurement": "% inhibition", "setting": "D3", "value": 1.9, "unit": "%"}, {"measurement": "% inhibition", "setting": "5-HT1B", "value": "−1", "unit": "%"}, {"measurement": "% inhibition", "setting": "5-HT1A", "value": 5.8, "unit": "%"}, {"measurement": "% inhibition", "setting": "5-hT5A", "value": 28.9, "unit": "%"}, {"measurement": "% inhibition", "setting": "5-HT3", "value": 0, "unit": "%"}, {"measurement": "% inhibition", "setting": "5-HT2B", "value": 49.6, "unit": "%"}, {"measurement": "% inhibition", "setting": "D1", "value": 5.5, "unit": "%"}, {"measurement": "% inhibition", "setting": "Alpha1B", "value": "−2", "unit": "%"}, {"measurement": "% inhibition", "setting": "NET", "value": 43.8, "unit": "%"}, {"measurement": "% inhibition", "setting": "D2", "value": "−0.8", "unit": "%"}, {"measurement": "% inhibition", "setting": "D4", "value": "−5.8", "unit": "%"}, {"measurement": "% inhibition", "setting": "5-HT7", "value": 60.3, "unit": "%"}, {"measurement": "% inhibition", "setting": "H3", "value": 8.9, "unit": "%"}, {"measurement": "% inhibition", "setting": "Beta3", "value": "−3.1", "unit": "%"}, {"measurement": "% inhibition", "setting": "5-HT1D", "value": "−1.6", "unit": "%"}, {"measurement": "% inhibition", "setting": "Alpha1A", "value": 4, "unit": "%"}, {"measurement": "% inhibition", "setting": "M5", "value": 32.1, "unit": "%"}, {"measurement": "% inhibition", "setting": "Alpha2A", "value": 12.9, "unit": "%"}, {"measurement": "% inhibition", "setting": "5-HT2C", "value": 21.1, "unit": "%"}, {"measurement": "% inhibition", "setting": "D5", "value": 2.1, "unit": "%"}, {"measurement": "% inhibition", "setting": "H2", "value": 57.4, "unit": "%"}, {"measurement": "% inhibition", "setting": "Alpha2C", "value": 22.7, "unit": "%"}, {"measurement": "% inhibition", "setting": "5-HT6", "value": 27.6, "unit": "%"}, {"measurement": "% inhibition", "setting": "Beta2", "value": "−2.6", "unit": "%"}, {"measurement": "% inhibition", "setting": "5-HT1E", "value": "−5.7", "unit": "%"}, {"measurement": "% inhibition", "setting": "Sigma 1", "value": 9.6, "unit": "%"}]}
